# Assay results taken from PubChem BioAssay AID504930 (The Scripps Research Institute Molecular Screening Center, 2011).
# pIC50: −log10 of the molar value.
# System: granule cell progenitor proliferation, radioactive thymidine incorporation
# Assay: inhibition of GCP proliferation, late-stage follow-up, counter-screen for Wee1 degradation inhibitor project, cell-based, radioactive thymidine incorporation (AID 504930)
row,Structure (SMILES),pIC50
1,O=[N+]([O-])c1cccc2[nH]c(CNc3nc(N4CCOCC4)nc4c3ncn4-c3ccsc3)nc12,8.34
2,c1ccc2[nH]c(CNc3nc(N4CCOCC4)nc4c3ncn4-c3ccsc3)nc2c1,7.94
